US5594001A, “Polycyclic systems, and derivatives thereof, as neurotransmitter release enhancers useful in the treatment of cognitive disorders” (The DuPont Merck Pharmaceutical Company, priority 1994, dated 1997)
pEC50: −log10 of the molar value.

Tests used:
[1] = tested on: memory disruption induced by hypoxia, male CD rats; assay: Rat Passive Avoidance (PA) Hypoxia Induced Amnesia; assay type: in vivo, rat (male CD); conditions: Table II; SC; median retention latency vs vehicle
Excerpt: Rat Passive Avoidance (PA) Hypoxia Induced Amnesia:
Unfasted male CD rats, weighing between 165-210 grams, were trained in a PA apparatus using the following procedure: rats were placed in the clear side of the two compartment chamber and allowed 90 seconds to enter the dark compartment. Ten seconds after entering the dark chamber, a 3 second footshock (1.0 mA) was applied to the grid floor followed by an additional 10 second delay, and another 3 second footshock was applied. Retentions were tested 4 hours later. The rats were allowed 300 seconds to enter the dark compartment; time was taken. Memory disruption was induced by exposing the rats to a gas mixture containing 6.5% oxygen supplemented with nitrogen for 30 minutes before passive avoidance training. Doses of the test compound were administered (0.1 ml/100 g, SC.) relative to time of PA training.

[2] = tested on: stimulus-induced acetylcholine release, slices from the parietal cortex; assay: Neurotransmitter (ACh) release assay, rat cortex slices, K+ stimulated; assay type: cell-based, rat (male Wistar); conditions: for pEC50: Table III
Protocol: The neurotransmitter release activities of the compounds of this invention were determined using standard biochemical assay procedures for example, the neurotransmitter release assay as described below.
Neurotransmitter release assay.
The neurotransmitter (Ach) release activities of the compounds of this invention were determined by the assay as described by Nickolson, et al., Drug Development Research, (1990) 19: 285-300, a modification of the procedure described by Mulder, et al., Brain Res., (1974) 70: 372.
Male Wistar rats (Charies River) weighing 175-200 grams were used. Rats were decapitated and brains were dissected immediately. Slices (0.3 mm thick) from the parietal cortex were prepared (approximately 100 mg wet weight) and were incubated in 10 ml KrebsRinger medium (KR) containing NaCl (116 mM), KCl (3 mM), CaCl2 (1.3 mM), MgCl2 (1.2 mM), KH2 PO4 (1.2 mM), Na2 SO4 (1.2 mM), NaHCO3 (25.0 mM), and glucose (11.0 mM), to which was added 10 uCi ^3 H-choline (specific activity approximately 35 Ci/mM; NEN) and […] unlabeled choline to give a final concentration of one micromole. The brain preparations were incubated for 30 min. at 37° C. under a steady flow of 95% O2 /5% CO2. Under these conditions, part of the radioactive choline taken up by the preparation was converted into radioactive acetylcholine (ACh) by the cholinergic nerve endings stored in synaptic vesicles, and released upon depolarization by high potassium ion (K+) containing media.
After labelling of the ACh stores, the slices were washed three times with non-radioactive KR medium and transferred to a superfusion apparatus to measure the drug effects on ACh release. The superfusion apparatus consisted of 10 thermostated glass columns of 5 mm diameter that were provided with GF/F glass fiber filters to support the slices (approximately 10 mg tissue/column). Superfusion was carried out in KR-medium (0.3 ml/min.) containing […] hemicholine-3 (HC-3). The HC-3 prevents the reuptake of choline formed during the superfusion from phospholipids and released ACh, which would be converted into unlabeled ACh and released in preference to the preformed labeled ACh. The medium was delivered by a 25-channel peristaltic pump (Ismatec by Brinkman) and warmed to 37° C. in a thermostated stainless steel coil before entering the superfusion column. Each column was provided with a 4-way slider valve (Beckmann instruments) which allowed rapid change of low to high K+/KR-medium, and with two 10-channel 3-way valves that were used to change from drug-free to drug-containing low and high K+/KR-medium. After 15 min. of washout of non-specifically bound radioactivity, collection of 4 min. fractions was initiated. After three 4 min. collections, the original medium was changed to a KR-medium in which the KCl concentration had been increased to 25 mM (high K+ medium) (S1). Depolarization-induced stimulation of release by high K+/KR-medium lasted for 4 min. Drug free low and high K+/KR-media were then substituted by drug- and vehicle-containing low- and high-K+/KR-medium, and superfusion was continued for three 4 min. collections with low K+/KR-medium, one 4 min. collection with high K+/KR-medium (s2), and two 4 min. collections with low K+/KR-medium.
Drug was added to the media by 100-fold dilutions of appropriate concentrations of the drug (in 0.9% saline) with either low- or high-K+/KR-medium. For comparative purposes, linopirdine was also run.
All superfusion fractions were collected in liquid scintillation counting vials. After superfusion, the slices were removed from the superfusion columns and extracted with 1.0 ml of 0.1N HCl. Liquiscint (NEN) counting fluid (12 ml) was added to superfusion fractions and extracts, and the samples were counted in a Packard Tricarb Liquid Scintillation Counter. No corrections were made for quenching. […]

[3] = tested on: ACh level in the rat hippocampus; assay: Microdialysis, ACh levels in the rat hippocampus in vivo; parameters: species or system rat (male Wistar); conditions: for AUC, Area % under the curve / Peak, maximal % increase of ACh release over baseline / time of Peak after administration / Duration, minutes of release above statistical significance: Table IV
Protocol: Male Wistar Rats are anaesthetized and guide cannulas stereotaxically implanted into the brain at the level of the dorsal hippocampus. Following a minimum recovery period of 72 h, dialysis probes (0.5 mm diameter, 4.0 mm long, from BAS) are inserted into the hippocampus through the guide cannulas. The probes are perfused at a rate of 2 μl/min with artificial cerebrospinal fluid containing 100 μM physostigmine sulfate (a cholinesterase inhibitor). Rats are allowed to acclimate for 2 hours prior to sample collection. Dialysate samples are collected every 20 min (40 μl) and immediately injected onto a high performance liquid chromatograph equipped for electrochemical detection (HPLC-EC) of acetylcholine (ACh). Following collection of 3 baseline samples, drugs or vehicle control are administered in 0.01 ml/g body weight and dialysate samples are collected for an additional 3 h. The ACh peak heights of the 3 samples prior to drug administration are averaged together to determine baseline ACh levels. ACh peak heights post drug administration are measured and used to determine percent change over baseline ACh levels. At the end of experiments, probe placement is verified histologically.
ACh is separated by reverse phase chromatography (Hamilton PRP-1 column 150×4.5 mm) and converted to acetate, betaine and hydrogen peroxide on an immobilized enzyme reactor column (BAS). Hydrogen peroxide is then detected electrochemically. Mobile phase for the chromatography consists of 0.2M Na2 HPO4, 0.1 mM EDTA, 0.5 mM SOS, 0.9 mM TMA.Cl, with pH adjusted to 8.0 with phosphoric acid and […] Kathon CG (ESA) added to each liter of mobile phase to retard bacterial growth.
FIGS. 1 and 2 show the effects of fluorine substitution to the pendant groups of the anthrone and azafluorene core series on the ability of compounds to increase the level of ACh in the rat hippocampus in vivo. All compounds were tested at 5 mg/kg except Ex. No 64 which was administered at 1 mg/kg. […] This was observed even though the compound was administered by a route (i.p.) which should lead to greater bioavailability than the oral route. Example 68 of the present invention, the bis-fluorinated analog of Example 611 or U.S. Pat. No. 5,173,489, on the other hand, led to a 2-fold increase in ACh levels which was maintained for over 1 hour (FIG. 1). The anthrone compound Ex. No. 440 of U.S. Pat. No. 5,173,489, at 5 mg/kg, led to a peak ACh level of 72% over baseline (FIG. 2). Ex. No. 64 of the present invention, which is the bis-fluoro analog of Ex. No. 440 of U.S. Pat. No. 5,173,489, at 1 mg/kg, led to a delayed increase in ACh levels reaching a peak of over 100% above baseline (FIG. 2). In contrast to the observed effects of Example 440 of U.S. Pat. No. 5,173,489, the increase in ACh level after administration of Example 64 of the present invention was maintained for the entire duration of testing (3 hours).

[4] = 5 mg/kg, vehicle methocel, NSP = no significant points
[5] = 1 mg/kg, vehicle methocel, NSP = no significant points
[6] = 5 mg/kg, vehicle water, NSP = no significant points

## c1ccc(Cn2ncc3c2-c2ccccc2C3(Cc2ccncc2)Cc2ccncc2)cc1 [Example 14, 1,4-Dihydro-1-(phenylmethyl)-4,4-bis(4-pyridinylmethyl)indeno[1,2-C]pyrazol]
[1]
  PA Hypoxia: Active
[2]; Table II, 10 μM, % increase of drug-induced ACh release
  activation at 10 µM: 533%

## Fc1cc(CC2(Cc3ccncc3)c3ccccc3Oc3ccccc32)ccn1 [Example 65, 9-((2-Fluoro-4-pyridinyl)methyl)-9-(4-pyridinylmethyl)-9H-xanthene]
[2]
  pEC50: 6.09
[3]; 5 mg/kg, vehicle methocel
  AUC, Area % under the curve: 147 ± 69%
  Peak, maximal % increase of ACh release over baseline: 40 ± 11%
  time of Peak after administration: 20 min
[3]; [4]
  Duration, minutes of release above statistical significance: 60 min

## Fc1cc(CC2(Cc3ccnc(F)c3)c3ccccc3Oc3ncccc32)ccn1 [Example 67, 9,9-Bis((2-fluoro-4-pyridinyl)methyl)-4-azaxanthene]
[2]
  pEC50: 6.19
[3]; 1 mg/kg, vehicle methocel
  AUC, Area % under the curve: 666 ± 212%
  Peak, maximal % increase of ACh release over baseline: 123 ± 62%
  time of Peak after administration: 200 min
[3]; [5]
  Duration, minutes of release above statistical significance: >
[3]; 5 mg/kg, vehicle methocel
  AUC, Area % under the curve: 1423 ± 595%
  Peak, maximal % increase of ACh release over baseline: 199 ± 80%
  time of Peak after administration: 160 min
[3]; [4]
  Duration, minutes of release above statistical significance: >

## Fc1cc(CC2(Cc3ccnc(F)c3)c3ccccc3-c3ncccc32)ccn1 [Example 68, 5,5-Bis((2-fluoro-4-pyridinyl)methyl)-5H-indeno[1,2-b]pyridine]
[2]
  pEC50: 6.12
[3]; 5 mg/kg oral, FIG. 1
  increase in ACh levels: 2 fold
  time for which the increase in ACh levels was maintained: over 1 hour
[3]; 1 mg/kg, vehicle methocel
  AUC, Area % under the curve: 304 ± 88%
  Peak, maximal % increase of ACh release over baseline: 74 ± 29%
  time of Peak after administration: 100 min
[3]; [5]
  Duration, minutes of release above statistical significance: 120 min
[3]; 2 mg/kg, vehicle water
  AUC, Area % under the curve: 240 ± 82%
  Peak, maximal % increase of ACh release over baseline: 47 ± 12%
  time of Peak after administration: 40 min
[3]; 5 mg/kg, vehicle methocel
  AUC, Area % under the curve: 942 ± 324%
  Peak, maximal % increase of ACh release over baseline: 201 ± 68%
  time of Peak after administration: 80 min
[3]; [4]
  Duration, minutes of release above statistical significance: > 80 min
[3]; 5 mg/kg, vehicle water
  AUC, Area % under the curve: 871 ± 272%
  Peak, maximal % increase of ACh release over baseline: 121 ± 25%
  time of Peak after administration: 100 min
[3]; [6]
  Duration, minutes of release above statistical significance: 120 min

## Fc1cc(CC2(Cc3ccnc(F)c3)c3cccnc3-c3sccc32)ccn1 [Example 69, 4,4-Bis((2-fluoro-4-pyridinyl)methyl)-4H-thieno[3',2':4,5]cyclopenta[1,2-b]pyridine]
[2]
  pEC50: 6.19
[3]; 5 mg/kg, vehicle water
  AUC, Area % under the curve: 285 ± 40%
  Peak, maximal % increase of ACh release over baseline: 44 ± 14%
  time of Peak after administration: 20 min
[3]; [6]
  Duration, minutes of release above statistical significance: 40 min

## COc1ccc2c(c1)C(Cc1ccnc(F)c1)(Cc1ccnc(F)c1)c1ccccc1-2 [Example 71, 9,9-Bis((2-fluoro-4-pyridinyl)methyl)-2-methoxyfluorene]
[2]
  pEC50: 5.91
[3]; 5 mg/kg, vehicle methocel
  AUC, Area % under the curve: 126 ± 74%
  Peak, maximal % increase of ACh release over baseline: 34 ± 16%
  time of Peak after administration: 60 min
[3]; [4]
  Duration, minutes of release above statistical significance: NSP

## COc1ccc2c(c1)C(Cc1ccnc(F)c1)(Cc1ccnc(F)c1)c1cccnc1O2 [Example 72, 9,9-Bis((2-fluoro-4-pyridinyl)methyl)-7-methoxy-4-azaxanthene]
[2]
  pEC50: 6.07
[3]; 5 mg/kg, vehicle methocel
  AUC, Area % under the curve: 138 ± 109%
  Peak, maximal % increase of ACh release over baseline: 34 ± 22%
  time of Peak after administration: 60 min
[3]; [4]
  Duration, minutes of release above statistical significance: NSP

## Fc1cc(CC2(Cc3ccnc(F)c3)c3cccnc3-c3cccnc32)ccn1 [Example 75, 9,9-Bis((2-fluoro-4-pyridinyl)methyl)-cyclopenta[1,2-b:3,4-b']dipyridine]
[2]
  pEC50: 5.92
[3]; 5 mg/kg, vehicle methocel
  AUC, Area % under the curve: 302 ± 35%
  Peak, maximal % increase of ACh release over baseline: 67 ± 12%
  time of Peak after administration: 20 min
[3]; [4]
  Duration, minutes of release above statistical significance: 60 min

## Fc1cc(CC2(Cc3ccnc(F)c3)c3ccccc3-c3nc(-c4ccccc4)ncc32)ccn1 [Example 76, 5,5-Bis((2-fluoro-4-pyridinyl)methyl)-2-phenyl-5H-indeno[1,2-d]pyrimidine]
[2]
  pEC50: 6.18
[3]; 5 mg/kg, vehicle methocel
  AUC, Area % under the curve: 96 ± 67%
  Peak, maximal % increase of ACh release over baseline: 39 ± 25%
  time of Peak after administration: 20 min
[3]; [4]
  Duration, minutes of release above statistical significance: NSP

## Fc1cc(CC2(Cc3ccnc(F)c3)c3ccccc3-c3ncncc32)ccn1 [Example 81, 5,5-Bis((2-fluoro-4-pyridinyl)methyl)-5H-indeno-[1,2-d]pyrimidine]
[2]
  pEC50: 6.19
[3]; 5 mg/kg, vehicle methocel
  AUC, Area % under the curve: 250 ± 68%
  Peak, maximal % increase of ACh release over baseline: 53 ± 17%
  time of Peak after administration: 60 min
[3]; [4]
  Duration, minutes of release above statistical significance: 100 min

## Fc1cc(CC2(Cc3ccnc(F)c3)c3cccnc3-c3ncccc32)ccn1 [Example 97, 5,5-Bis((2-fluoro-4-pyridinyl)methyl)-5H-cyclopenta[2,1-b:3,4-b']dipyridine]
[2]
  pEC50: 5.58
[3]; 10 mg/kg, vehicle methocel
  AUC, Area % under the curve: 649 ± 188%
  Duration, minutes of release above statistical significance: 120 min
  Peak, maximal % increase of ACh release over baseline: 102 ± 29%
  time of Peak after administration: 100 min
